ChEMBL document CHEMBL1158366, “Gallium(III) complexes of 2-pyridineformamide thiosemicarbazones: cytotoxic activity against malignant glioblastoma” (Eur J Med Chem, 2009)
The source made the active and inactive calls. The rule behind the calls is not given here.

How the values were obtained:
[1] = tested on: RT2; test: Induction of apoptosis in rat RT2 cells expressing wild type p53 protein assessed as DNA fragmentation at 100 uM after 48 hrs using DAPI staining by UV/fluorescence microscopy; assay type: functional, cell-based
[2] = Cytotoxicity against rat RT2 cells expressing wild type p53 protein after 48 hrs by MTT assay; assay type: functional, cell-based; conditions: RT2, 48 h
[3] = tested on: RT2; test: Induction of apoptosis in rat RT2 cells expressing wild type p53 protein assessed as cell membrane morphological changes at 100 uM after 48 hrs by phase contrast microscopy; assay type: functional, cell-based
[4] = tested on: T98; test: Induction of apoptosis in human T98 cells expressing mutant p53 protein assessed as cell membrane morphological changes at 100 uM after 48 hrs by phase contrast microscopy; assay type: functional, cell-based
[5] = Cytotoxicity against human T98 cells expressing mutant p53 protein after 48 hrs by MTT assay; assay type: functional, cell-based; conditions: T98, 48 h
[6] = Toxicity in human RBC membrane assessed as hemolysis after 1 hr by spectrophotometry; assay type: cell-based, Erythrocyte; conditions: red blood cells (RBC membrane)
[7] = tested on: T98; test: Induction of apoptosis in human T98 cells expressing mutant p53 protein assessed as DNA fragmentation at 100 uM after 48 hrs using DAPI staining by UV/fluorescence microscopy; assay type: functional, cell-based

SMILES	Activity [1]	IC50 [2]	Activity [3]	Activity [4]	IC50 [5]	IC50 at 1 hr [6]	Activity [7]
CNC(=S)N/N=C(\N)c1ccccn1	Active	12.2 µM	Active	Active	32 µM	> 1000 µM	Active
NC(=S)N/N=C(\N)c1ccccn1	–	7.28 µM	–	–	3.6 µM	> 1000 µM	–
CCNC(=S)N/N=C(\N)c1ccccn1	–	359 µM	–	–	143 µM	> 1000 µM	–
